From ChEMBL document CHEMBL1201862, “PubChem BioAssay data set” (2004)
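These data come from cells grown in 96-well plates and exposed to compound for 48 hours at five concentrations. GI50: concentration for 50% inhibition of growth.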 Calls of active or inactive are those of the source. Cut-off read from the data, not from the text of the source: active = GI50 up to about 1.1 µM and inactive = higher.

Experiments:
Test in all cases: NCI tumour cell line growth inhibition, 48 h
[1] = test system: 786-0
[2] = test system: A498
[3] = test system: CAKI-1
[4] = test system: CCRF-CEM
[5] = test system: COLO 205
[6] = test system: HCT-116
[7] = test system: HT-29
[8] = test system: K562
[9] = test system: M14
[10] = test system: MCF7
[11] = test system: MDA-MB-435
[12] = test system: NCI-H23
[13] = test system: OVCAR-5
[14] = test system: RXF 393
[15] = test system: SF-268
[16] = test system: SK-OV-3
[17] = test system: SNB-75
[18] = test system: T47D
[19] = test system: TK-10
[20] = test system: UACC-62

Measured: GI50

C1CCNCC1.Oc1ncnc2[nH]cc(CN3CCCCC3)c12
inactive: [1] 22.9 µM | [2] > 100 µM | [3] > 100 µM | [4] 16.4 µM | [5] 73.3 µM | [6] 15.7 µM | [7] 39.3 µM | [8] > 100 µM | [9] > 100 µM | [10] 28.8 µM | [11] > 100 µM | [12] > 100 µM | [13] > 100 µM | [14] 43.8 µM | [15] 87.9 µM | [16] > 100 µM | [17] 55.5 µM | [18] 57.9 µM | [19] 46 µM | [20] 83.9 µM

CN(C)Cc1cc(C(=O)O)cc(CN(C)C)c1O
inactive: [1] > 100 µM | [2] > 100 µM | [3] > 100 µM | [4] > 100 µM | [5] > 100 µM | [6] > 100 µM | [7] > 100 µM | [8] > 100 µM | [9] > 100 µM | [10] > 100 µM | [11] > 100 µM | [12] > 100 µM | [13] > 100 µM | [14] > 100 µM | [15] > 100 µM | [16] > 100 µM | [17] > 100 µM | [18] > 100 µM | [19] > 100 µM | [20] > 100 µM

O=C1C2CCN(CC2)C1(CO)CO
inactive: [1] 28.2 µM | [2] > 51.1 µM | [3] 19.2 µM | [4] 5.06 µM | [5] 18.7 µM | [6] 17 µM | [7] 28 µM | [8] 23.6 µM | [9] 18.3 µM | [10] 24.7 µM | [11] 61.5 µM | [12] 25.2 µM | [13] 26 µM | [14] 21.1 µM | [15] > 100 µM | [16] 60.7 µM | [17] 57.7 µM | [18] 19.5 µM | [19] 17.3 µM | [20] 25.1 µM

O=C1/C(=C\c2ccc(Br)cc2)CCCc2ccccc21
inactive: [1] 14.6 µM | [2] 23.8 µM | [3] 29.3 µM | [4] 19.7 µM | [5] 17.9 µM | [6] 12.4 µM | [7] 15 µM | [8] 41.8 µM | [9] 29.6 µM | [10] 19.5 µM | [11] 19.2 µM | [12] 17.1 µM | [13] 38.6 µM | [14] 21 µM | [15] 16.9 µM | [16] 35.6 µM | [17] 18.8 µM | [18] 10.5 µM | [19] 18.7 µM | [20] 13.3 µM

CCCCCCOc1ccc(C(=O)N(C)O)cc1
inactive: [1] 12.4 µM | [2] 26.5 µM | [3] 15.6 µM | [4] 1.85 µM | [5] 14.2 µM | [6] 14.9 µM | [7] 10.9 µM | [8] 8.83 µM | [9] 12.6 µM | [10] 28.9 µM | [11] 23.4 µM | [12] 11.9 µM | [13] 67.3 µM | [14] 13.1 µM | [15] 11.5 µM | [16] 18.8 µM | [17] 27.3 µM | [18] 23.6 µM | [19] 46.3 µM | [20] 16.1 µM
